One test relates to Phakopsora pachyrhizi. Description: Phakopsora pachyrhizi / soybean / leaf disc preventative (Asian soybean rust). The format is in vivo. Conditions: foliar, 200 ppm in the applied formulation, soybean leaf disks, inoculated one day after application, vs untreated, 12 to 14 days after application, read-out: disease control. Here is the method:
(§1) Leaf disks or leaf segments of various plant species are cut from plants grown in a greenhouse. The cut leaf disks or segments are placed in multiwell plates (24-well format) onto water agar. The leaf disks are sprayed with a test solution before (preventative) or after (curative) inoculation. Compounds to be tested are prepared as DMSO solutions (max. 10 mg/ml) which are diluted to the appropriate concentration with 0.025% Tween20 just before spraying. The inoculated leaf disks or segments are incubated under defined conditions (temperature, relative humidity, light, etc.) according to the respective test system. A single evaluation of disease level is carried out 3 to 14 days after inoculation, depending on the pathosystem. Percent disease control relative to the untreated check leaf disks or segments is then calculated.
Example 3: Fungicidal Activity Against Phakopsora pachyrhizi/Soybean/Leaf Disc Preventative (Asian Soybean Rust)
Soybean leaf disks are placed on water agar in multiwell plates (24-well format) and sprayed with the Formulated test compound diluted in water. One day after application leaf discs are inoculated by spraying a spore suspension on the lower leaf surface. After an incubation period in a climate cabinet of 24-36 hours in darkness at 20° C. and 75% rh leaf disc are kept at 20° C. with 12 h light/day and 75% rh. The activity of a compound is assessed as percent disease control compared to untreated when an appropriate level of disease damage appears in untreated check leaf disks (12 to 14 days after application).
(§2) The following compounds at 200 ppm in the applied Formulation give at least 80% disease control in this test when compared to untreated control leaf disks under the same conditions, which show extensive disease development.

The subject of test [1] is Glomerella lacenarium (Colletotrichum lacenarium). Description: Glomerella lacenarium (Colletotrichum lacenarium) liquid culture / cucumber / preventative (anthracnose). Type of test: cell-based. As to conditions: 20 ppm, liquid culture in PDB, 24° C., inhibition of growth measured photometrically 3 to 4 days after application, vs untreated, read-out: disease control. Here is the method: Mycelia fragments or conidia suspensions of a fungus prepared either freshly from liquid cultures of the fungus or from cryogenic storage, are directly mixed into nutrient broth. DMSO solutions of the test compound (max. 10 mg/ml) are diluted with 0.025% Tween20 by a factor of 50 and 10 μl of this solution is pipetted into a microtiter plate (96-well format). The nutrient broth containing the fungal spores/mycelia fragments is then added to give an end concentration of the tested compound. The test plates are incubated in the dark at 24° C. and 96% relative humidity. The inhibition of fungal growth is determined photometrically after 2 to 7 days, depending on the pathosystem, and percent antifungal activity relative to the untreated check is calculated.
Example 4: Fungicidal Activity Against Glomerella lacenarium (Colletotrichum lacenarium) Liquid Culture/Cucumber/Preventative (Anthracnose)
Conidia of the fungus from cryogenic storage are directly mixed into nutrient broth (PDB-potato dextrose broth). After placing a (DMSO) solution of test compound into a microtiter plate (96-well format), the nutrient broth containing the fungal spores is added. The test plates are incubated at 24° C. and the inhibition of growth is measured photometrically 3 to 4 days after application.
The following compounds at 20 ppm in the applied Formulation give at least 80% disease control in this test when compared to untreated control under the same conditions, which show extensive disease development.

In test [2] the test system is Puccinia recondita f. Sp. Tritici. Description: Puccinia recondita f. sp. tritici / wheat / leaf disc preventative (brown rust). Conditions: foliar, 200 ppm in the applied formulation, wheat leaf segments cv. Kanzler, inoculated 1 day after application, vs untreated, 7 to 9 days after application, read-out: disease control. The format is in vivo. Here is the method: as §1
Example 1: Fungicidal Activity Against Puccinia recondita f. Sp. Tritici/Wheat/Leaf Disc Preventative (Brown Rust)
Wheat leaf segments cv. Kanzler were placed on agar in multiwell plates (24-well format) and sprayed with the Formulated test compound diluted in water. The leaf disks were inoculated with a spore suspension of the fungus 1 day after application. The inoculated leaf segments were incubated at 19° C. and 75% relative humidity (rh) under a light regime of 12 hours light/12 hours darkness in a climate cabinet and the activity of a compound was assessed as percent disease control compared to untreated when an appropriate level of disease damage appears in untreated check leaf segments (7 to 9 days after application).
as §2

In the case of `CCC(=O)Nc1ccc(CC(=O)Nc2ccc(-c3noc(C(F)(F)F)n3)cc2)cc1` [Compound 1.27, N-[4-[2-oxo-2-[4-[5-(trifluoromethyl)-1,2,4-oxadiazol-3-yl]anilino]ethyl]phenyl]propanamide], the pest or weed control at 200 ppm in the test on Phakopsora pachyrhizi was at least 80%.

As to `COCc1nc(C)c(C(=O)Nc2ccc(-c3noc(C(F)(F)F)n3)nc2)s1` [Compound 1.51, 2-(methoxymethyl)-4-methyl-N-[6-[5-(trifluoromethyl)-1,2,4-oxadiazol-3-yl]-3-pyridyl]thiazole-5-carboxamide], the pest or weed control at 200 ppm with Phakopsora pachyrhizi was at least 80%.

For the molecule `CC(C)(C(=O)Nc1ccc(-c2noc(C(F)(F)F)n2)nc1)c1ncc(Cl)cc1Cl` [Compound 1.53, 2-(3,5-dichloro-2-pyridyl)-2-methyl-N-[6-[5-(trifluoromethyl)-1,2,4-oxadiazol-3-yl]-3-pyridyl]propanamide], the pest or weed control at 200 ppm in the test on Phakopsora pachyrhizi is at least 80%.

Take `O=C(Nc1ccc(-c2noc(C(F)(F)F)n2)cc1)C1=CCCC1` [Compound 1.81, N-[4-[5-(trifluoromethyl)-1,2,4-oxadiazol-3-yl]phenyl] cyclopentene-1-carboxamide]: the pest or weed control at 200 ppm in the test with Phakopsora pachyrhizi was at least 80%. The inhibition of growth at 20 ppm in test [1] was at least 80%.

Consider `CCC(CC)C(=O)Nc1ccc(-c2noc(C(F)(F)F)n2)cc1` [Compound 1.91, 2-ethyl-N-[4-[5-(trifluoromethyl)-1,2,4-oxadiazol-3-yl]phenyl]butanamide], for which the pest or weed control at 200 ppm in the test on Phakopsora pachyrhizi was at least 80%. For the same molecule, the inhibition of growth at 20 ppm in test [1] was at least 80%.

Turning to `C=CCC(=O)Nc1ccc(-c2noc(C(F)(F)F)n2)cc1` [Compound 1.94, N-[4-[5-(trifluoromethyl)-1,2,4-oxadiazol-3-yl]phenyl]but-3-enamide], the inhibition of growth at 20 ppm in test [1] was at least 80%. The pest or weed control at 200 ppm in test [2] was at least 80%.

With `CC(=O)OCC(=O)Nc1ccc(-c2noc(C(F)(F)F)n2)cc1` [Compound 1.95, [2-oxo-2-[4-[5-(trifluoromethyl)-1,2,4-oxadiazol-3-yl]anilino]ethyl] acetate], the inhibition of growth at 20 ppm in test [1] is at least 80%. In test [2], the pest or weed control at 200 ppm is at least 80%.

As to `O=C(Nc1ccc(-c2noc(C(F)(F)F)n2)cc1)C1CCSCC1` [Compound 1.96, N-[4-[5-(trifluoromethyl)-1,2,4-oxadiazol-3-yl]phenyl] tetrahydrothiopyran-4-carboxamide], the inhibition of growth at 20 ppm in test [1] was at least 80%. For the same molecule, in test [2], the pest or weed control at 200 ppm was at least 80%.

In the case of `O=C(CC1CC(F)(F)C1)Nc1ccc(-c2noc(C(F)(F)F)n2)cc1` [Compound 1.97, 2-(3,3-difluorocyclobutyl)-N-[4-[5-(trifluoromethyl)-1,2,4-oxadiazol-3-yl]phenyl]acetamide], the inhibition of growth at 20 ppm in test [1] was at least 80%. Besides, the pest or weed control at 200 ppm in test [2] is at least 80%.

With `O=C(CCCC=C(F)F)Nc1ccc(-c2noc(C(F)(F)F)n2)cc1` [Compound 1.98, 6,6-difluoro-N-[4-[5-(trifluoromethyl)-1,2,4-oxadiazol-3-yl]phenyl]hex-5-enamide], the inhibition of growth at 20 ppm in test [1] is at least 80%. Moreover, in test [2], the pest or weed control at 200 ppm is at least 80%.

For `O=C(Cc1ccccc1F)Nc1ccc(-c2noc(C(F)(F)F)n2)cc1` [Compound 1.100, 2-(2-fluorophenyl)-N-[4-[5-(trifluoromethyl)-1,2,4-oxadiazol-3-yl]phenyl]acetamide], the inhibition of growth at 20 ppm in test [1] is at least 80%. Moreover, the pest or weed control at 200 ppm in test [2] is at least 80%.

As to `CC(CO)(CCl)C(=O)Nc1ccc(-c2noc(C(F)(F)F)n2)cc1` (stereo not shown) [Compound 1.103, 2-(chloromethyl)-3-hydroxy-2-methyl-N-[4-[5-(trifluoromethyl)-1,2,4-oxadiazol-3-yl]phenyl] propanamide], the inhibition of growth at 20 ppm in test [1] is at least 80%. Moreover, the pest or weed control at 200 ppm in test [2] was at least 80%.

Consider `O=C(CCc1cccnc1)Nc1ccc(-c2noc(C(F)(F)F)n2)cc1` [Compound 1.105, 3-(3-pyridyl)-N-[4-[5-(trifluoromethyl)-1,2,4-oxadiazol-3-yl]phenyl] propanamide], for which, in test [1], the inhibition of growth at 20 ppm was at least 80%. For the same molecule, the pest or weed control at 200 ppm in test [2] is at least 80%.

With `O=C1CC(C(=O)Nc2ccc(-c3noc(C(F)(F)F)n3)cc2)C1` [Compound 1.106, 3-oxo-N-[4-[5-(trifluoromethyl)-1,2,4-oxadiazol-3-yl]phenyl]cyclo-butanecarboxamide], in test [1], the inhibition of growth at 20 ppm is at least 80%. Moreover, the pest or weed control at 200 ppm in test [2] was at least 80%.

`O=C(Nc1ccc(-c2noc(C(F)(F)F)n2)cc1)C1OCCO1` [Compound 1.113, N-[4-[5-(trifluoromethyl)-1,2,4-oxadiazol-3-yl]phenyl]-1,3-dioxolane-2-carboxamide]: in test [1], the inhibition of growth at 20 ppm is at least 80%. Also, the pest or weed control at 200 ppm in test [2] is at least 80%.

For the molecule `O=C(Cc1cc(C(F)(F)F)ccn1)Nc1ccc(-c2noc(C(F)(F)F)n2)cc1` [Compound 1.115, N-[4-[5-(trifluoromethyl)-1,2,4-oxadiazol-3-yl]phenyl]-2-[4-(trifluoromethyl)-2-pyridyl]acetamide], the inhibition of growth at 20 ppm in test [1] was at least 80%. In addition, the pest or weed control at 200 ppm in test [2] was at least 80%.

For the molecule `O=C(Nc1ccc(-c2noc(C(F)(F)F)n2)cc1)C(F)F` [Compound 1.120, 2,2-difluoro-N-[4-[5-(trifluoromethyl)-1,2,4-oxadiazol-3-yl]phenyl]acetamide], the inhibition of growth at 20 ppm in test [1] was at least 80%. Also, the pest or weed control at 200 ppm in test [2] was at least 80%.

Take `COCCOCC(=O)Nc1ccc(-c2noc(C(F)(F)F)n2)cc1` [Compound 1.122, 2-(2-methoxyethoxy)-N-[4-[5-(trifluoromethyl)-1,2,4-oxadiazol-3-yl]phenyl]acetamide]: in test [1], the inhibition of growth at 20 ppm is at least 80%. For the same molecule, in test [2], the pest or weed control at 200 ppm was at least 80%.

With `CN(C(=O)C1CC1(F)F)c1ccc(-c2noc(C(F)(F)F)n2)cc1` (stereo not shown) [Compound 1.133, 2,2-difluoro-N-methyl-N-[4-[5-(trifluoromethyl)-1,2,4-oxadiazol-3-yl]phenyl]cyclo-propanecarboxamide], the pest or weed control at 200 ppm in the test on Phakopsora pachyrhizi is at least 80%.

For `CC1CC1C(=O)N(C)c1ccc(-c2noc(C(F)(F)F)n2)cc1` (stereo not shown) [Compound 1.137, N,2-dimethyl-N-[4-[5-(trifluoromethyl)-1,2,4-oxadiazol-3-yl]phenyl]cyclo-propanecarboxamide], in the test with Phakopsora pachyrhizi, the pest or weed control at 200 ppm was at least 80%. Moreover, the inhibition of growth at 20 ppm in test [1] is at least 80%.

On to `CN(C(=O)C1(C)CC1)c1ccc(-c2noc(C(F)(F)F)n2)cc1` [Compound 1.138, N,1-dimethyl-N-[4-[5-(trifluoromethyl)-1,2,4-oxadiazol-3-yl]phenyl]cyclo-propanecarboxamide], for which, in the test on Phakopsora pachyrhizi, the pest or weed control at 200 ppm was at least 80%.

Regarding `O=C(Nc1ccc(-c2noc(C(F)(F)F)n2)cc1)C1CCCC1` [Compound 2.6, N-[4-[5-(trifluoromethyl)-1,2,4-oxadiazol-3-yl]phenyl] cyclopentane-carboxamide], the inhibition of growth at 20 ppm in test [1] was at least 80%. Also, the pest or weed control at 200 ppm in test [2] was at least 80%.

As to `O=C(Nc1ccc(-c2noc(C(F)(F)F)n2)cc1)C1CCC1` [Compound 2.9, N-[4-[5-(trifluoromethyl)-1,2,4-oxadiazol-3-yl]phenyl] cyclobutane-carboxamide], the inhibition of growth at 20 ppm in test [1] is at least 80%. The pest or weed control at 200 ppm in test [2] was at least 80%.

Turning to `CCC(=O)N(OC)c1ccc(-c2noc(C(F)(F)F)n2)cc1` [Compound 2.28, N-methoxy-N-[4-[5-(trifluoromethyl)-1,2,4-oxadiazol-3-yl]phenyl] propanamide], the pest or weed control at 200 ppm in the test with Phakopsora pachyrhizi is at least 80%. The inhibition of growth at 20 ppm in test [1] is at least 80%.

The record behind these values is patent publication US20200022370A1, “MICROBIOCIDAL OXADIAZOLE DERIVATIVES” (SYNGENTA PARTICIPATIONS AG, priority 2016, published 2020).
